Results from the Kinase Knowledgebase extract (Sharma et al. 2016).

Tests used:
MAPK14 (human) [1] = target: MAPK14 (human) (UniProt Q16539); test: Inhibition of TNF-alpha Production from LPS Stimulated PBMC
MAPK14 (human) [2] = target: MAPK14 (human) (UniProt Q16539); test: Inhibition of IL-1beta Production from LPS Stimulated PBMC
MAPK14 (human) [3] = target: MAPK14 (human) (UniProt Q16539); test: Inhibition of TNF-alpha Release in LPS Stimulated Whole Blood Culture; settings: blood cells
MAPK14 (human) [4] = target: MAPK14 (human) (UniProt Q16539); test: Inhibition of IL-1 beta Release from LPS Stimulated Whole Blood Culture; settings: blood cells
MAPK14 (human) [5] = target: MAPK14 (human) (UniProt Q16539); test: Inhibition of MAPK14 Kinase Activity

MAPK14 (human), sequence (Q16539 whole entry, looked up): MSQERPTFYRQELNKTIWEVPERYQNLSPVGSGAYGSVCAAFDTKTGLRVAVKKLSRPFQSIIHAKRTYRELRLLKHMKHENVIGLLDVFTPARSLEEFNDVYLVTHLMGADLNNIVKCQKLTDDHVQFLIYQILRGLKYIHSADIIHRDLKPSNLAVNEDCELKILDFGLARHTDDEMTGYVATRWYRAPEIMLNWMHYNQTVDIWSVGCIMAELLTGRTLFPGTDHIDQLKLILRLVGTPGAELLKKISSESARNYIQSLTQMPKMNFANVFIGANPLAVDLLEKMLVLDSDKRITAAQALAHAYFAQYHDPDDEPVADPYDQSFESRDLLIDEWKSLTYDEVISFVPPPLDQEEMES

IC50 (MAPK14 (human) [1]) [nM]	IC50 (MAPK14 (human) [2]) [nM]	IC50 (MAPK14 (human) [3]) [nM]	IC50 (MAPK14 (human) [4]) [nM]	IC50 (MAPK14 (human) [5]) [nM]	SMILES
12000	2100				C[S+]([O-])c1ccc(CSc2nc(-c3ccc(F)cc3)c(-c3ccnc(Cl)c3)[nH]2)cc1 (centres undefined)
340	30				CSc1nc(-c2ccc(F)cc2)c(-c2ccnc(Nc3ccccc3)c2)[nH]1
640	56				COc1ccc(CNc2cc(-c3[nH]c(SC)nc3-c3ccc(F)cc3)ccn2)cc1
60000	1800				Fc1ccc(-c2nc(SCc3ccccc3)[nH]c2-c2ccnc(Cl)c2)cc1
3200	200				Fc1ccc(-c2nc(SCc3ccccc3)[nH]c2-c2ccnc(NCc3ccccc3)c2)cc1
21000	180				COc1ccc(CNc2cc(-c3[nH]c(SCc4ccccc4)nc3-c3ccc(F)cc3)ccn2)cc1
670	85	17300	22300		CSc1nc(-c2ccc(F)cc2)c(-c2ccnc(NCc3ccc(C)cc3)c2)[nH]1
2000	470				C[S+]([O-])c1ccc(CSc2nc(-c3ccc(F)cc3)c(-c3ccnc(NCc4ccccc4)c3)[nH]2)cc1 (centres undefined)

More lines, now with the values behind:

SMILES	IC50 (MAPK14 (human) [1]) [nM]	IC50 (MAPK14 (human) [2]) [nM]	IC50 (MAPK14 (human) [3]) [nM]	IC50 (MAPK14 (human) [4]) [nM]	IC50 (MAPK14 (human) [5]) [nM]
CSc1nc(-c2ccc(F)cc2)c(-c2ccnc(NCc3ccc(Cl)cc3)c2)[nH]1	500	150	14800	13300	
CSc1nc(-c2ccc(F)cc2)c(-c2ccnc(OC(C)C)c2)[nH]1	4600	2700	7200	2200	
CSc1nc(-c2ccc(F)cc2)c(-c2cc[nH]c(=O)c2)[nH]1	3100	500			
C[S+]([O-])c1ccc(CSc2nc(-c3ccc(F)cc3)c(-c3ccnc(F)c3)[nH]2)cc1 (centres undefined)	6900	2450			
CSc1nc(-c2ccc(F)cc2)c(-c2ccnc(NCc3ccc(Cl)c(Cl)c3)c2)[nH]1	720	230			
CSc1nc(-c2ccc(F)cc2)c(-c2ccnc(F)c2)[nH]1	2800	300			
CSc1nc(-c2ccc(F)cc2)c(-c2ccnc(NCc3ccccc3)c2)[nH]1	630	108			650
CSc1nc(-c2ccc(F)cc2)c(-c2ccnc(Cl)c2)[nH]1	2200	350			
CSc1nc(-c2ccc(F)cc2)c(-c2ccnc(NCCc3ccccc3)c2)[nH]1	350	31	14900	17100	
Fc1ccc(-c2nc(SCc3ccccc3)[nH]c2-c2ccnc(F)c2)cc1	40500	2900			
CC(Nc1cc(-c2[nH]c(SCc3ccccc3)nc2-c2ccc(F)cc2)ccn1)c1ccccc1 (centres undefined)	2700	45			
COc1cc(-c2[nH]c(SC)nc2-c2ccc(F)cc2)ccn1	1900	150			
CC(Nc1cc(-c2[nH]c(SCc3ccc([S+](C)[O-])cc3)nc2-c2ccc(F)cc2)ccn1)c1ccccc1 (centres undefined)	910	40	10000	15700	270
